Source: patent US10966426B2, “Herbicidal compositions comprising phenylpyrimidines” (BASF SE, priority 2016, dated 2021)

Experiments:
Format in all cases: in vivo
[1] = system: Setaria viridis; assay: greenhouse pre-emergence treatment, SETVI; details: SETVI
Method in brief: (§1)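 Damage rated on 0 to 100 scale (0 = normal growth, 100 = no emergence or total above-ground kill) after 2-4 weeks at species-dependent 10-25° C or 20-35° C. Seeds sown per species in loamy sand, ~3.0% humus, treated right after sowing with aqueous spray of single actives or 10% emulsion-concentrate mixtures, then hooded; additive expectation by Colby.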

[2] = system: BRAPL; assay: greenhouse pre-emergence treatment, BRAPL; details: Table X9, 21 DAT
[3] = system: Poa annua; assay: greenhouse pre-emergence treatment, POAAN; details: Poa annua, 480 h, 20 DAT; for inhibition at 500000 µg/mL (stock): sc
Text: (§2) The culture containers used were plastic pots containing loamy sand with approximately 3.0% of humus as substrate. The seeds of the test plants were sown separately for each species.
(§3) For the pre-emergence treatment, the active compounds, suspended or emulsified in water, were applied directly after sowing by means of finely distributing nozzles. The containers were irrigated gently to promote germination and growth and subsequently covered with transparent plastic hoods until the plants had rooted. This cover caused uniform germination of the test plants unless this was adversely affected by the active compounds.
(§4) Depending on the species, the plants were kept at 10-25° C. and 20-35° C., respectively.
(§5) The test period extended over 2 to 4 weeks. During this time, the plants were tended and their response to the individual treatments was evaluated.
(§6) Evaluation was carried out using a scale from 0 to 100. 100 means no emergence of the plants, or complete destruction of at least the above-ground parts, and 0 means no damage or normal course of growth. A good herbicidal activity is given at values of at least 70, and very good herbicidal activity is given at values of at least 85.
(§7) The respective stated components A and B, and if appropriate, C were formulated as a 10% by weight strength emulsion concentrate and, with addition of the amount of solvent system, introduced into the spray liquor used for applying the active compound. In the examples, the solvent used was water.
(§8) In the examples below, using the method of S. R. Colby (1967) “Calculating synergistic and antagonistic responses of herbicide combinations”, Weeds 15, p. 22ff., the value E, which is expected if the activity of the individual active compounds is only additive, was calculated. E=X+Y−(X·Y/100) where X=effect in percent using herbicide A at an application rate a; • Y=effect in percent using herbicide B at application rate b; • E=expected effect (in %) of herbicide A+herbicide B at application rates a+b.

[4] = system: Papaver rhoeas; assay: greenhouse pre-emergence treatment, PAPRH; details: 20 DAT
Text: as §2, §3, §4, §5, §6, §7, §8

[5] = system: Matricaria chamomilla; assay: greenhouse pre-emergence treatment, MATCH; details: Matricaria chamomilla, 480 h, 20 DAT
Text: as §2, §3, §4, §5, §6, §7, §8

[6] = system: Lolium multiflorum; assay: greenhouse pre-emergence treatment, LOLMU; details: Lolium multiflorum, 480 h, 20 DAT, LOLMU
Method in brief: as §1

[7] = system: Polygonum convolvulus; assay: greenhouse pre-emergence treatment, POLCO; details: Fallopia convolvulus, 480 h, 20 DAT, POLCO
Method in brief: as §1

[8] = system: Galium aparine; assay: greenhouse pre-emergence treatment, GALAP; details: Galium aparine, 480 h, solo, EC 800 g/l, GALAP, 500 gai/ha, 20 DAT
Method in brief: as §1

[9] = system: Bromus sterilis; assay: greenhouse pre-emergence treatment, BROST; details: Bromus sterilis, 480 h, 20 DAT, BROST
Method in brief: as §1

[10] = system: Brachiaria decumbens; assay: greenhouse pre-emergence treatment, BRADC; details: Urochloa decumbens, 480 h, 20 DAT, BRADC
Method in brief: as §1

[11] = system: Alopecurus myosuroides; assay: greenhouse pre-emergence treatment, ALOMY; details: Alopecurus myosuroides, 480 h, 20 DAT, solo terbuthylazin (SC 500 g/l) 250 gai/ha
Text: as §2, §3, §4, §5, §6, §7, §8

[12] = system: Avena fatua; assay: greenhouse pre-emergence treatment, AVEFA; details: Avena fatua, 480 h, AVEFA, 20 DAT, solo terbuthylazin (SC 500 g/l) 500 gai/ha
Method in brief: as §1

[13] = system: Stellaria media; assay: greenhouse pre-emergence treatment, STEME; details: Stellaria media, 480 h, 20 DAT, solo terbuthylazin (SC 500 g/l) 62.5 gai/ha
Text: as §2, §3, §4, §5, §6, §7, §8

[14] = system: Echinocloa crus-galli; assay: greenhouse pre-emergence treatment, ECHCG; details: 20 DAT; for % activity: terbuthylazin solo (SC 500 g/l)
Text: as §2, §3, §4, §5, §6, §7, §8

[15] = system: Digitaria sanguinalis; assay: greenhouse pre-emergence treatment, DIGSA; details: Digitaria sanguinalis, sc, 480 h, DIGSA, 20 DAT
Method in brief: as §1

[16] = system: Apera spica-venti; assay: greenhouse pre-emergence treatment, APESV; details: Apera spica-venti, sc, 480 h, 20 DAT
Method in brief: as §1

[17] = system: Ambrosia elatior; assay: greenhouse pre-emergence treatment, AMBEL; details: Ambrosia artemisiifolia, 480 h, terbuthylazin solo (SC 500 g/l), 500 gai/ha, 20 DAT, AMBEL
Method in brief: as §1

[18] = system: Lolium perenne; assay: greenhouse post-emergence treatment, LOLPE; details: solo terbuthylazin (SC 500 g/l) 125 gai/ha, 20 DAT, 2nd series of rows
Experimental: as §2
To this end, the test plants were either sown directly, and grown in the same containers, or they were first grown separately as seedlings and transplanted into the test containers a few days prior to treatment.
as §4, §5, §6
In the examples, the solvent used was water.
In the examples below, using the method of S. R. Colby (1967) “Calculating synergistic and antagonistic responses of herbicide combinations”, Weeds 15, p. […] E=X+Y−(X·Y/100) where X=effect in percent using herbicide A at an application rate a; • Y=effect in percent using herbicide B at application rate b; • E=expected effect (in %) of herbicide A+herbicide B at application rates a+b.

[19] = prosulfocarb solo 250 gai/ha, read-out: % activity
[20] = solo terbuthylazin (SC 500 g/l) 62.5 gai/ha
[21] = solo terbuthylazin (SC 500 g/l) 125 gai/ha
[22] = solo terbuthylazin (SC 500 g/l) 250 gai/ha
[23] = sc, solo terbuthylazin (SC 500 g/l) 250 gai/ha
[24] = sc, solo terbuthylazin (SC 500 g/l) 500 gai/ha

Compound: O=C(Nc1ccc(F)cc1F)c1cccnc1Oc1cccc(C(F)(F)F)c1 [diflufenican]
- % activity ([1]; Table X9, 21 DAT, solo diflufenican (SC 500 g/l) 60 gai/ha): 70%
- % activity ([2]; solo diflufenican (SC 500 g/l) 15 gai/ha): 0%
- % activity ([2]; solo diflufenican (SC 500 g/l) 30 gai/ha): 0%
- % activity ([2]; solo diflufenican (SC 500 g/l) 120 gai/ha): 20%

Compound: CCCN(CCC)C(=O)SCc1ccccc1 [prosulfocarb]
- inhibition at 125 g/ha ([3]; prosulfocarb solo 125 gai/ha): 0%
- inhibition at 1000 g/ha ([4]; Papaver rhoeas, 480 h, prosulfocarb solo 1000 gai/ha): 70%
- % activity ([4]; solo, EC 800 g/l, 1000 gai/ha): 70%
- inhibition at 250 g/ha ([5]; prosulfocarb solo 250 gai/ha): 0%
- inhibition at 1000 g/ha ([5]; prosulfocarb solo 1000 gai/ha): 65%
- inhibition at 250 g/ha ([6]; prosulfocarb solo 250 gai/ha): 30%
- inhibition at 250 g/ha [7, 19]: 0%
- inhibition at 1000 g/ha ([7]; prosulfocarb solo 1000 gai/ha): 80%
- inhibition at 250 g/ha ([1]; Setaria viridis, 480 h, prosulfocarb solo 250 gai/ha, 20 DAT): 40%
- inhibition at 1000 g/ha ([1]; Setaria viridis, 480 h, prosulfocarb solo 1000 gai/ha, 20 DAT): 85%
- % activity ([1]; solo, EC 800 g/l, 125 gai/ha, 20 DAT): 10%
- pest or weed control at 500 g/ha [8]: 30%
- inhibition at 250 g/ha [9, 19]: 0%
- inhibition at 500 g/ha ([9]; prosulfocarb solo 500 gai/ha): 40%
- inhibition at 1000 g/ha ([9]; prosulfocarb solo 1000 gai/ha): 50%
- % herbicidal activity (weed control, 0-100 scale) at 250 g/ha ([10]; prosulfocarb solo 250 gai/ha): 0%
- % herbicidal activity (weed control, 0-100 scale) at 500 g/ha ([10]; prosulfocarb solo 500 gai/ha): 20%

Compound: CCNc1nc(Cl)nc(NC(C)(C)C)n1 [terbuthylazin, terbuthylazine]
- inhibition at 500000 µg/mL (stock) [3, 20]: 0%
- inhibition at 500000 µg/mL (stock) [3, 21]: 30%
- inhibition at 500000 µg/mL (stock) [3, 22]: 70%
- inhibition at 500000 µg/mL (stock) [11]: 40%
- inhibition at 500000 µg/mL [12]: 0%
- inhibition at 500000 µg/mL (stock) ([6]; sc, solo terbuthylazin (SC 500 g/l) 125 gai/ha): 0%
- inhibition at 500000 µg/mL (stock) [6, 23]: 10%
- inhibition at 500000 µg/mL [6, 24]: 35%
- pest or weed control at 500000 µg/mL, 500 g/ha ([7]; terbuthylazin solo (SC 500 g/l), 500 gai/ha): 65%
- inhibition at 500000 µg/mL (stock) [7, 23]: 0%
- inhibition at 500000 µg/mL [7, 24]: 65%
- inhibition at 500000 µg/mL (stock) ([1]; Setaria viridis, 480 h, 20 DAT, solo terbuthylazin (SC 500 g/l) 250 gai/ha): 0%
- % activity ([1]; terbuthylazin solo (SC 500 g/l), 62.5 gai/ha, 20 DAT): 0%
- % activity ([1]; terbuthylazin solo (SC 500 g/l), 125 gai/ha, 20 DAT): 0%
- % activity ([1]; terbuthylazin solo (SC 500 g/l), 250 gai/ha, 20 DAT): 0%
- inhibition at 500000 µg/mL (stock) [13]: 70%
- inhibition at 500000 µg/mL ([14]; Echinochloa crus-galli, 480 h, solo terbuthylazin (SC 500 g/l) 500 gai/ha): 0%
- % activity ([14]; 62.5 gai/ha): 0%
- % activity ([14]; 125 gai/ha): 0%
- inhibition at 500000 µg/mL (stock) [15, 21]: 0%
- inhibition at 500000 µg/mL (stock) [15, 22]: 0%
- inhibition at 500000 µg/mL ([15]; solo terbuthylazin (SC 500 g/l) 500 gai/ha): 20%
- inhibition at 500000 µg/mL (stock) [9, 22]: 0%
- inhibition at 500000 µg/mL (stock) [16, 20]: 0%
- inhibition at 500000 µg/mL (stock) [16, 21]: 50%
- pest or weed control at 500000 µg/mL, 500 g/ha [17]: 65%
- % activity [18]: 35%
